Laboratory results reported in PubChem BioAssay (NCI).
“And” between values parts separate entries of the source, which are not always exact repeats. Equal values may be shown once.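 Tested at 5 concentrations; 48 h exposure; 96-well plates; endpoints linearly interpolated, else capped at highest concentration. The concentration for 50% growth inhibition is given as GI50. TGI is the concentration that stops growth completely.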

Key:
Test in all cases: NCI-60 cell line screen, 48 h
SK-MEL-2 melanoma = system: SK-MEL-2 melanoma
T-47D breast = system: T-47D breast
CAKI-1 renal = system: CAKI-1 renal
A549 NSCLC = system: A549 NSCLC
SF-268 CNS = system: SF-268 CNS
LOX IMVI melanoma = system: LOX IMVI melanoma
SR leukemia = system: SR leukemia
SK-MEL-5 melanoma = system: SK-MEL-5 melanoma
SK-OV-3 ovarian = system: SK-OV-3 ovarian
SNB-75 CNS = system: SNB-75 CNS

Structure (SMILES)	GI50 (SK-MEL-2 melanoma) [µM]	TGI (SK-MEL-2 melanoma) [µM]	GI50 (T-47D breast) [µM]	TGI (T-47D breast)	GI50 (CAKI-1 renal)	TGI (CAKI-1 renal)	GI50 (A549 NSCLC) [µM]	TGI (A549 NSCLC) [µM]	GI50 (SF-268 CNS)	TGI (SF-268 CNS) [µM]	GI50 (LOX IMVI melanoma)	TGI (LOX IMVI melanoma) [µM]	GI50 (SR leukemia)	TGI (SR leukemia) [µM]	GI50 (SK-MEL-5 melanoma)	TGI (SK-MEL-5 melanoma) [µM]	GI50 (SK-OV-3 ovarian) [µM]	TGI (SK-OV-3 ovarian) [µM]	GI50 (SNB-75 CNS)	TGI (SNB-75 CNS) [µM]
Cc1ncc(C(=O)Nc2ccc(CN3CCN(C)CC3)c(C(F)(F)F)c2)cc1C#Cc1c(N)ncc2ccc(C#N)cc12	1.74	17.5	> 14.5	> 50 µM	0.89 µM	7.22 µM	2.82	14.4	1.4 µM	9.7	0.092 µM	0.791	1.42 µM	12.2	1.1 µM	8.59	1.7	10.9	2.38 µM	8.93
CCOP1(=O)OCC2OC(n3cnc4c(N)ncnc43)C(O)C2O1 (stereo not drawn)		> 100		> 100 µM		> 100 µM		> 100		> 100		> 100		> 100		> 100		> 100		> 100
Cc1c2c(n3c(nc4ccccc43)c1C#N)SCC2		> 10		> 10 µM		> 10 µM		> 10		> 10		> 10		> 10		> 10		> 10		> 10
CCOC(=O)c1cnc2ccc(Cl)cc2c1NCCCN(C)C	29.1	62.6	41.5	> 100 µM	23.8 µM	96.5 µM	21.2	67.7	19.9 µM	94	14.1 µM	34.1	6.42 µM	70.4	16 µM	30.4	34.9	> 100	0.684 µM	77.2
COC1CC(OC2OC(CO)C(O)C(O)C2O)/C(=C\C#N)C(O)C1OC (stereo not drawn)		> 100		> 100 µM		> 100 µM		> 100		> 100		> 100		> 100		> 100		> 100		
COc1cc(-c2cc(-c3ccc(N(C)C)cc3)nc(N3CCC(O)CC3)c2C#N)cc(OC)c1OC	0.37	1.07	0.458	4.07 µM	0.0224 µM	0.7 µM	0.378		1.22 µM	5.31	0.0455 µM	0.205	0.432 µM	2.94	0.162 µM	0.508	2.11	57.7	0.457 µM	10.1
Cc1cc(Cl)n2c(nc3ccccc32)c1C#N	0.396	2.25	0.718	2.3 µM	0.282 µM	1.41 µM	0.385	7.43	0.46 µM	11.4	0.26 µM	1.35	0.348 µM	24.2	0.573 µM	3.45	3.81	15.6	1.33 µM	8.53
Cn1cc(-c2ccc3cc(-c4ccc(CC(=O)Nc5cc(C(C)(C)C)nn5C)cc4)cnc3c2)cn1	0.138		0.209	4.81 µM	0.0519 µM	> 100 µM	0.336	> 100	0.294 µM	> 100	0.284 µM	> 100	0.256 µM	> 100	0.227 µM	0.585	0.109	> 100	0.0723 µM	> 100
Cc1cc(O)c2c(c1)C[C@@H](O)C1=C2C(=O)c2c(O)ccc(OC3CC(O)C(OC4CC(OC5CCC(OC6CC(O)C(OC7CC(OC8CCC(O)C(C)O8)C(O)C(C)O7)C(C)O6)C(C)O5)C(O)C(C)O4)C(C)O3)c2C1=O (stereo partly drawn)	0.89		0.626	0.352 µM and 2.54 µM	0.398 µM and 0.439 µM	0.274 µM and 1.18 µM and 1.45 µM	2.38		0.295 µM and 0.467 µM		0.295 µM and 0.23 µM		0.033 µM and 0.0475 µM		1.33 µM and 1.2 µM				1.48 µM and 1.99 µM	
Nc1nc2nc3c(nc2c(=O)[nH]1)CN(c1ccc(C(=O)O)cc1)C3=O		> 100		> 100 µM		> 100 µM		> 100		> 100		> 100		> 100		> 100		> 100		> 100
COc1ccc(C(=O)/C=C/c2ccc(Cl)cc2)cc1S(N)(=O)=O	12.4	25.7	3.2	14.4 µM	2.72 µM	10.6 µM	2.69	8.15	3.13 µM	11.9	1.28 µM	2.65	0.865 µM	6.86	5.69 µM	18	5.96	18.6		
C=C1C(=O)OC(CCCCCCCC)C1C(=O)O (stereo not drawn)	16.1	31.7	12.3	30.6 µM	16 µM	34.9 µM	23.6	> 67.6	19.5 µM	39.6	13.5 µM	26.9	5.57 µM	44.9	16.1 µM	29.9	34.3	> 77.9	16 µM	34.6
N#Cc1c(N)nn(C(=O)c2ccc(NC(=O)c3ccccn3)cc2)c1-c1ccc(Cl)cc1	71.6	> 100	2.79	9.15 µM	2.06 µM	6.3 µM	3.24	12.8	3.55 µM	24.1	5.75 µM	> 100	3.81 µM	> 100	7.15 µM	> 100	5.23	34.9	1.86 µM	4.07
Cc1ccc(CCC(=O)Nc2ncc(Cc3cc(Cl)ccc3Cl)s2)o1	0.683	> 58.5	1.22	> 100 µM	0.114 µM	7.36 µM	0.376	> 58.8	1.59 µM	> 54.6	0.221 µM		0.0557 µM	18.9	0.0804 µM	5.96	0.399	> 100	0.206 µM	2.16
CC1(CCCC2(C)CCNC2=O)OCCO1 (stereo not drawn)		> 10		> 10 µM		> 10 µM		> 10		> 10		> 10		> 10		> 10		> 10		> 10
[O-][n+]1onc2c3nn(-c4ccccc4)nc3ccc21		> 100		32.4 µM		> 100 µM		> 100		> 100		> 58.3		> 75.1		> 100		> 100		> 100
O=C1CCCC1C(=O)Nc1ccc2ccccc2c1 (stereo not drawn)		> 100		> 100 µM		> 100 µM		> 100		> 100		> 100		> 100		> 100		> 100		> 100
CC(C)Oc1cc(OCC(=O)O)cc(C(=O)N(CCC(N)=O)C(=O)Nc2ccc(C(=O)O)cc2OC(C)C)c1	> 100	> 100	> 100	> 100 µM			> 100	> 100	> 100 µM	> 100	> 100 µM	> 100	> 100 µM	> 100	> 100 µM	> 100	> 100	> 100	> 100 µM	> 100
CC/C(=C(\c1ccccc1)c1ccc(OCCN(C)C)cc1)c1ccccc1			0.805		3.42 µM		2.93				1.49 µM		1.82 µM		0.852 µM					
FC(F)(F)c1ccc2nc(-c3nc(-c4ccccc4)n4ccccc34)[nH]c2c1	14.9	40.3	1.71	16.9 µM	5.07 µM	27.1 µM	3.12	11.1	5.63 µM	> 100			3.65 µM	> 100	1.9 µM	5.55	1.86	3.53	1.68 µM	3.94
CCN(CC)CCn1c(=N)n(CC(O)c2ccc(Cl)c(Cl)c2)c2ccccc21 (stereo not drawn)	2.93	8.32	4.68	19.3 µM	11.8 µM	25.1 µM			11.9 µM	25.3	6.14 µM	20.3	2.12 µM	5.56	1.73 µM	3.15	11.9	24.1	10.6 µM	23.8
COc1ccccc1/C=C1\COc2ccc(O)c(O)c2C1=O	2.72	8.67	2.47	> 100 µM	1.48 µM	4.15 µM	2.95	> 100	2.22 µM	8.42	1.26 µM	2.66	0.407 µM	11.9	1.56 µM	3.18	4.68	> 100		
